Row | SMILES | melting point [°C]
1 | O=C(O)c1cn(-c2ccccc2)nc1-c1ccc(Br)cc1 | 262 to 264
2 | NNC(=O)C1CCCC1 | 112 to 114
3 | Cn1c(=O)c2c(S)nc(C(C)(C)C)nc2n(C)c1=O | 143 to 145
4 | CC(C)(C)c1ccc(C(C)(C)C(=O)O)cc1 | 165 to 167
5 | CCOC(=O)c1c(CCCO)cnc2nc(C(=O)OC)nn12 | 86 to 88
6 | CS(=O)(=O)NCc1cccc(CN)c1 | 70 to 72
7 | Nc1nc(-c2ccc3c(c2)OCO3)cs1 | 176 to 180
8 | O=C(O)c1cc([N+](=O)[O-])ccc1SCCO | 163 to 165
9 | O=C(O)C1CC(=O)N(c2ccccc2Br)C1 (centres undefined) | 177 to 179
10 | O=C1C=CC(=O)N1CCc1ccccc1 | 109 to 111
11 | COC(=O)c1snc(-c2ccccc2)c1N | 114 to 116
12 | COc1ccc(COc2ccc(C#N)cn2)cc1 | 101 to 103
13 | Nc1cc(-c2ccco2)nn1-c1ccc(Cl)cc1 | 129 to 131
14 | COc1ccc(C(=O)O)c(I)c1 | 182 to 184
15 | CC(Cl)C(=O)N(c1nccs1)C1CCCCC1 (centres undefined) | 82 to 84
16 | CN1C(=O)c2ccc(NC(=O)CCl)cc2C1=O | 203 to 205
17 | O=C(O)C1CCN(c2ccccc2Br)C1=O (centres undefined) | 164 to 166
18 | Nc1cccc2c1C(=O)N(Cc1ccccc1)C2=O | 147 to 149
19 | COc1cccc(NC2=NC(C)(C)CS2)c1 | 105 to 107
20 | CC(C)(C)NC(=O)CN1CCN(CC(N)=S)CC1 | 148 to 152
21 | O=C(O)c1cc(F)cc(S(=O)(=O)Cl)c1Br | 186 to 188
22 | O=C(CCl)NCC1(c2ccccc2)CCCC1 | 74 to 76
23 | Cc1noc(C)c1COc1ccc(C=O)cc1 | 107 to 109
24 | C=CCNc1ncc(C(=O)OC)s1 | 109 to 111

Row | SMILES | melting point [°C]
25 | COC(=O)c1ccc(F)cc1S | 41 to 43
26 | CCN1CCCC1CN1CC(C(=O)O)CC1=O (centres undefined) | 166 to 168
27 | Nc1ccc(-n2ncc3ccccc32)cc1 | 158 to 160
28 | Sc1nnc(-c2c[nH]c3ccccc23)o1 | 218 to 225
29 | CC1CCN(S(=O)(=O)c2ccc(N)cc2)CC1 | 108 to 110
30 | O=C1CSC(=Cc2nc3ccccc3s2)N1 | 186 to 188
31 | Cc1nnnn1-c1ccc(Br)cc1 | 116 to 118
32 | Cc1nnc(S)n1C1CCCCC1 | 164 to 166
33 | O=C(O)C=C1CCOCC1 | 99 to 101
34 | CCOC(=O)/C(C#N)=C\Nc1cc(Cl)ccc1F | 147 to 149
35 | Cn1cc(-c2ccc(F)c(C(=O)O)c2)cn1 | 208 to 210
36 | CCN(C)C(=O)c1cccc(C(=O)O)c1 | 102 to 104
37 | CS(=O)(=O)c1cc(C(=O)O)c(Cl)cc1Cl | 210 to 212
38 | CC(=O)c1nc2ccc(C)cc2[nH]1 | 156 to 158
39 | Cc1cc(C(=O)O)c2c(C)noc2n1 | 233 to 235
40 | Cc1cccc(C)c1NC(=O)CN1CCNCC1 | 53 to 55
41 | Clc1ncnc2c(Br)cccc12 | 159 to 161
42 | COC(=O)c1cc(N)cc(I)c1 | 79 to 81
43 | Cc1cccc(C2(C(=O)O)CC2)c1 | 107 to 109
44 | CC(C)(C)OC(=O)N1CCc2ccc(N)cc2C1 | 93 to 95
45 | Cc1noc2nc(-c3cccc(Cl)c3)cc(C(=O)O)c12 | 239 to 241
46 | CNc1nc(N)n[nH]1 | 158 to 160
47 | O=C(O)c1cn(-c2ccccc2)nc1-c1cccc2ccccc12 | 186 to 188
48 | CC(=O)N1CCCc2cc(C(=O)O)ccc21 | 184 to 186

Row | SMILES | melting point [°C]
49 | CN1CCN(C(=O)C2CCCNC2)CC1 (centres undefined) | 85 to 87
50 | CC(C)c1cc(=O)oc2cc(O)ccc12 | 77 to 79
51 | O=C(O)c1cc2ccccc2c(OCC(F)(F)F)n1 | 206 to 208
52 | CCCn1c(N)c(NCCN2CCOCC2)c(=O)[nH]c1=O | 153 to 155
53 | Sc1nnc(Nc2ccccc2)s1 | 160 to 162
54 | O=C(O)c1cc2c(s1)-c1ccccc1CC2 | 212 to 214
55 | Nc1cnn(-c2ccncc2)c1 | 152 to 154
56 | Cc1cc(C(N)C(=O)O)ccc1Cl (centres undefined) | 218 to 220
57 | NC(=O)c1ccc(C(=O)O)s1 | 317 to 319
58 | Cc1ccccc1COc1c(C)cc(C=O)cc1C | 62 to 64
59 | Brc1ncn2ccccc12 | 77 to 79
60 | Cc1nc(-c2cccc(N)c2)[nH]c1C | 235 to 237
61 | Cc1c(CC(=O)O)nnn1-c1ccccc1 | 169 to 171
62 | O=C1NC(=O)c2cnccc21 | 233 to 235
63 | Cc1ccc(Nc2cccc(C(=O)O)c2)nn1 | 279 to 281
64 | CC1CC(N)=NO1 (centres undefined) | 95 to 97
65 | CNC(=O)CC(N)=NO | 119 to 121
66 | CC(C)Cn1cnc2c1c(=O)[nH]c(=O)n2CC(C)C | 158 to 160
67 | CC1(c2ccc(S(C)(=O)=O)cc2)NC(=O)NC1=O (centres undefined) | 228 to 230
68 | Nc1ccc(OCc2cccc(C(F)(F)F)c2)cc1 | 67 to 69
69 | Cc1nc(O)ccc1C(=O)O | 329 to 331
70 | CCN(CC)C(=O)c1ccc(C(=O)O)cc1 | 157 to 159
71 | CNC(=O)c1ccnc(F)c1 | 127 to 129
72 | Cc1cccn2c(=O)cc(CCl)nc12 | 110 to 112

Row | SMILES | melting point [°C]
73 | Nc1ccccc1N1CCCC1=O | 98 to 102
74 | C=CC(=O)NCc1cnc(C)s1 | 111 to 113
75 | Nc1ncc(Cc2ccc(S(N)(=O)=O)cc2)s1 | 177 to 179
76 | O=S(=O)(Cl)c1ccc(Cl)cc1C(F)(F)F | 45 to 47
77 | COc1ccc(N=C=S)cc1Cl | 88 to 90
78 | CC(C(=O)O)S(C)(=O)=O (centres undefined) | 86 to 88
79 | O=C(CCl)Nc1ccc2[nH]c(C(F)(F)F)nc2c1 | 217 to 219
80 | COC(=O)c1cc(S(=O)(=O)N2CCCC2)ccc1O | 160 to 162
81 | Nc1ccc(C2CC2)nn1 | 135 to 137
82 | CC(C1CC1)N(C)C(=O)c1ccc[nH]c1=O (centres undefined) | 187 to 189
83 | O=C1Nc2c(F)ccc(Br)c2C1=O | 274 to 276
84 | O=C1CCOc2cc(Br)ccc21 | 89 to 91
85 | O=C(Nc1ccc(F)cc1)Nc1cccc(O)c1 | 214 to 216
86 | O=Cc1cc(Br)c(OCc2ccccc2)c(Br)c1 | 78 to 80
87 | Cc1ccc(-c2ccc(=O)[nH]n2)s1 | 231 to 233
88 | COc1cc(-n2cccc2)c(Cl)cc1C(=O)O | 152 to 154
89 | O=C1CCCc2nc(-c3ccccc3F)sc21 | 153 to 155
90 | Cc1ccc(CN2CCOCC2)cc1N | 125 to 127
91 | O=S(=O)(Nc1nc2ccccc2nc1Cl)c1cc(F)ccc1F | 250 to 252
92 | CCS(=O)(=O)c1ccc(CC(=O)O)cc1 | 53 to 55
93 | O=C(O)C1Cc2ccccc2CN1C(=O)CCl (centres undefined) | 153 to 155
94 | O=C(O)c1nn(-c2ccc(F)cc2)ccc1=O | 240 to 242
95 | Clc1cncc(OCc2ccccc2)n1 | 47 to 49
96 | Cc1cc2sc(N)nc2s1 | 117 to 119

Row | SMILES | melting point [°C]
97 | O=C(O)Cc1cn(-c2ccccc2)nc1-c1ccc(F)cc1 | 145 to 147
98 | COC(=O)c1cc(OC)ccn1 | 43 to 45
99 | Nc1c(I)cc(I)cc1I | 187 to 189
100 | COc1cc(NC(=O)C(C)C)c(C(=O)O)cc1OC | 216 to 218
101 | CC(C)(C)NC(=O)c1ccc(C(=O)O)cc1 | 217 to 219
102 | Cc1nc(N)nc(Cl)c1Br | 189 to 191
103 | O=C(CCCl)N1CCN(c2ccccn2)CC1 | 97 to 99
104 | NS(=O)(=O)c1ccc(CNCC(F)(F)F)cc1 | 129 to 131
105 | O=C(O)c1cncs1 | 169 to 171
106 | O=C(O)C1CCN(c2ncc(C(F)(F)F)cc2Cl)CC1 | 134 to 136
107 | Brc1c[nH]c2nc(C3CCCO3)nc-2c1 (centres undefined) | 219 to 221
108 | C1Cc2nnc(C3CCNCC3)n2C1 | 126 to 128
109 | Cc1cccc(Nc2nnc(SCC(=O)O)s2)c1C | 159 to 161
110 | COc1cc(Br)ccc1C(=O)O | 154 to 156
111 | CC(C)NO | 73 to 75
112 | COc1cc2c(cc1C=O)OC(C)C2 (centres undefined) | 78 to 80
113 | O=[N+]([O-])c1cc(I)ccc1Cl | 71 to 73
114 | O=S1(=O)N=C(Cl)c2ccccc21 | 121 to 123
115 | O=C(O)c1c[nH]c(=O)[nH]1 | 232 to 236
116 | CC(Cl)C(=O)Nc1cccc([N+](=O)[O-])c1 (centres undefined) | 115 to 117
117 | COC(=O)c1cnc(NC2CC2)s1 | 157 to 159
118 | Cc1cccc(N2CCN(c3ccc(C#N)cn3)CC2)c1 | 121 to 123
119 | COC(=O)c1cc([N+](=O)[O-])cc(S(C)(=O)=O)c1 | 134 to 136
120 | Cc1nnc(Cl)n1-c1ccccc1 | 252 to 254

Row | SMILES | melting point [°C]
121 | Nc1ccc(S(=O)(=O)NCc2ccco2)cc1 | 180 to 182
122 | Clc1nc(Cl)c2cn[nH]c2n1 | 127 to 129
123 | CCN(CC)S(=O)(=O)c1ccc(C(=O)CBr)cc1 | 79 to 81
124 | CC(=O)NCc1ccc(C(=O)N2CCCC2C(=O)O)cc1 (centres undefined) | 196 to 198
125 | COc1ccc(-c2[nH]c3ccccc3c2CCC(=O)O)cc1 | 134 to 136
126 | O=C1CCCOc2cc(F)ccc21 | 37 to 39
127 | O=C1Cc2ncccc2N1 | 189 to 191
128 | O=C1CC2CCC(C1)N2c1ccccc1 | 89 to 91
129 | COc1cccc(CNC(=O)CCl)c1 | 100 to 104
130 | COc1cc(C(C)=O)ccc1SCC(=O)O | 134 to 136
131 | COc1ccc(/C=C/C(=O)O)cc1S(=O)(=O)NC(C)C | 202 to 204
132 | CC(=O)c1c(C)oc(N)c1C#N | 241 to 243
133 | Cn1ccnc1C(O)C1CCNCC1 (centres undefined) | 207 to 209
134 | Nc1ccc(C(=O)Nc2ccccc2)cc1 | 134 to 136
135 | CCN(C(=O)CCl)c1nc2ccccc2s1 | 233 to 235
136 | CC(Cl)C1CC(c2ccccc2)=NO1 (centres undefined) | 59 to 61
137 | Nc1ccc(Cl)cc1C(=O)NCC1CC1 | 152 to 154
138 | CCNC(=O)Cc1ccc(N)cc1 | 117 to 119
139 | CCOC(=O)C1CN(Cc2ccccc2)CCC1=O (centres undefined) | 161 to 163
140 | O=[N+]([O-])c1ccc(Cl)c(S(=O)(=O)Cl)c1 | 85 to 87
141 | O=C(C=NO)Nc1ccc2c(c1)OCCO2 | 130 to 132
142 | CC1CNc2cc(F)ccc2C(=O)N1 (centres undefined) | 169 to 171
143 | N#Cc1ccc(-c2nnco2)cc1 | 142 to 144
144 | CSc1ccc(S(=O)(=O)Cl)cc1 | 46 to 48
